Read-outs that look alike come from different tables or passages of the source.
Key:
Assay in all cases: microbe, parasite or virus in culture
Assay type in all cases: cell-based, Hepatitis C virus (HCV)
HCV replicon 1AQ30D = conditions: Replicon Assay B
HCV replicon 1B = conditions: Replicon Assay B
HCV replicon 1AY93H = test system: HCV replicon 1AY93H
In short: (§1)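 HCV RNA levels were calculated from Ct values (minus intercept, divided by slope) of a Neo primer/probe standard curve, with cyclophilin quantified the same way. Cells were seeded at 2000/well and incubated with compound for 3 days in 5% serum and 0.5% DMSO.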

HCV replicon 2B = test system: HCV replicon 2B
In short: as §1

HCV replicon 1A = conditions: Replicon Assay A
In short: as §1

[1] = read-out: 1A Q30D IC50, replicon 1AQ30D
[2] = read-out: 1A Y93H IC50; replicon 1AY93H; Replicon Assay A
[3] = read-out: 2B IC50; replicon 2B; Replicon Assay A
[4] = read-out: 1A Y93H IC50; HCV replicon 1A Y93H; Replicon Assay A
[5] = read-out: 2B IC50; HCV replicon 2B; Replicon Assay A
[6] = Hepatitis C virus, read-out: 1A Q30D IC50 (nM), replicon 1AQ30D
[7] = HCV replicon 1A Q30D, read-out: 1A Q30D IC50
[8] = HCV replicon 1A Y93H; Replicon Assay A; read-out: 1A Y93H IC50
[9] = HCV replicon 2B; Replicon Assay A; read-out: 2B IC50

Row | SMILES | IC50 (HCV replicon 1AQ30D; [1]) [nM] | IC50 (HCV replicon 1AY93H; [2]) [pM] | IC50 (HCV replicon 2B; [3]) [pM] | IC50 (HCV replicon 1B; Hepatitis C virus, replicon 1B) [pM] | IC50 (HCV replicon 1A; Hepatitis C virus, replicon 1A) [pM] | IC50 (HCV replicon 1B; HCV replicon 1B) [pM] | IC50 (HCV replicon 1A; HCV replicon 1A) [pM] | IC50 (HCV replicon 1AQ30D; [7]) [nM] | IC50 (HCV replicon 1AY93H; [8]) [pM] | IC50 (HCV replicon 2B; [9]) [pM] | also measured
1 | COC(=O)N[C@H](C(=O)N1CCC[C@H]1c1ncc(-c2ccc3c(c2)OC(c2cc4ccccc4s2)n2c-3cc3cc(-c4cnc([C@@H]5CCCN5C(=O)[C@@H](NC(=O)OC)C5CCOCC5)[nH]4)ccc32)[nH]1)C1CCOCC1 (single isomer, unassigned) [Compound 263] | 0.012 | 3 | 5 |  |  |  |  |  |  |  | IC50 (HCV replicon 1B; replicon 1B): 3.4 pM; IC50 (HCV replicon 1A; replicon 1A): 3.6 pM
2 | COC(=O)N[C@H](C(=O)N1CCC[C@H]1c1ncc(-c2ccc3c(c2)cc2n3C(c3ccc(C4CC4)s3)Oc3cc(-c4cnc([C@@H]5CCCN5C(=O)[C@@H](NC(=O)OC)C5CCOCC5)[nH]4)cc(C)c3-2)[nH]1)C(C)C (single isomer, unassigned) [Compound 122] | 0.029 | 7 | 3 | 2.3 | 2 |  |  |  |  |  | 
3 | CCCc1ccc(C2Oc3cc(-c4cnc([C@@H]5CCCN5C(=O)[C@@H](NC(=O)OC)C(C)C)[nH]4)cc(F)c3-c3cc4cc(-c5cnc([C@@H]6CCCN6C(=O)C(NC(=O)OC)C6C[C@@H](C)O[C@@H](C)C6)[nH]5)ccc4n32)s1 (single isomer, unassigned) [Compound 369] | 0.912 | 73.9 | 115 | 1.8 | 1 |  |  |  |  |  | 
4 | COC(=O)NC(C(=O)N1CCC[C@H]1c1ncc(-c2ccc3c(c2)cc2n3C(c3ccc(C4CCCC4)s3)Oc3cc(-c4cnc([C@@H]5CCCN5C(=O)[C@@H](NC(=O)OC)C(C)C)[nH]4)cc(F)c3-2)[nH]1)C1C[C@@H](C)O[C@@H](C)C1 (single isomer, unassigned) [Compound 658] |  |  |  |  |  | 8.4 | 3.2 |  |  |  | IC50 (HCV replicon 1AQ30D; read-out: 1A Q30D IC50, HCV replicon 1A Q30D): 0.0643 nM; IC50 (HCV replicon 1AY93H; [4]): 8.9 pM; IC50 (HCV replicon 2B; [5]): 9.8 pM
5 | COC(=O)NC(C(=O)N1CCC[C@H]1c1ncc(-c2ccc3c(c2)cc2n3C(c3ccc(F)s3)Oc3cc(-c4cnc([C@@H]5CCCN5C(=O)[C@@H](NC(=O)OC)C(C)C)[nH]4)cc(F)c3-2)[nH]1)C1C[C@@H](C)O[C@@H](C)C1 (single isomer, unassigned) [Compound 348] |  | 14.9 | 32.6 | 2.7 | 1.9 |  |  |  |  |  | IC50 (HCV replicon 1AQ30D; [6]): 0.387 nM
6 | COC(=O)NC(C(=O)N1CCCC1c1ncc(-c2cc(F)c3c(c2)OC(c2ccc(C4CC4)s2)n2c-3cc3cc(-c4cnc(C5CC6CC6N5C(=O)C(NC(=O)OC)C5CCOCC5)[nH]4)ccc32)[nH]1)C(C)C (mixture of isomers) [Compound 651] |  |  |  |  |  | 1.8 | 1.3 | 0.0178 | 2.3 | 8.1 | 
7 | COC(=O)NC(C(=O)N1[C@@H]2C[C@@H]2C[C@H]1c1ncc(-c2ccc3c(c2)cc2n3C(c3ccc(C4CC4)s3)Oc3cc(-c4cnc([C@@H]5CCCN5C(=O)[C@@H](NC(=O)OC)C(C)C)[nH]4)cc(F)c3-2)[nH]1)C1CCOC(C)(C)C1 (single isomer, unassigned) [Compound 276] |  | 1 | 5 | 2.4 | 1.5 |  |  |  |  |  | IC50 (HCV replicon 1AQ30D; [6]): 0.018 nM
8 | COC(=O)N[C@H](C(=O)N1CCC[C@H]1c1ncc(-c2cc(F)c3c(c2)OC(c2ccc(CC(C)C)s2)n2c-3cc3cc(-c4cnc([C@@H]5CCCN5C(=O)[C@@H](NC(=O)OC)C(C)C)[nH]4)ccc32)[nH]1)C(C)C (single isomer, unassigned) [Compound 520] |  |  |  |  |  |  | 9.47 |  |  |  | IC50 (HCV replicon 1AQ30D; Hepatitis C virus, read-out: 1A Q30D IC50, HCV replicon 1A Q30D): 1.91 nM; IC50 (HCV replicon 1B; Hepatitis C virus, HCV replicon 1B): 9.24 pM; IC50 (HCV replicon 1AY93H; [4]): 82.8 pM; IC50 (HCV replicon 2B; [5]): 593 pM
9 | COC(=O)N[C@H](C(=O)N1CCC[C@H]1c1ncc(-c2cc(F)c3c(c2)OC(c2ccc(C4CC4)s2)n2c-3cc3cc(-c4cnc([C@@H]5C[C@H]6C[C@H]6N5C(=O)[C@@H](NC(=O)OC)C5CCOCC5)[nH]4)ccc32)[nH]1)C(C)C (single isomer, unassigned) [Compound 652] |  |  |  |  |  | 1.7 | 1.2 | 0.327 | 33.1 | 53.2 | 
10 | COC(=O)NC(C(=O)N1CCC[C@H]1c1ncc(-c2ccc3c(c2)cc2n3C(c3ccc(C(F)(F)F)s3)Oc3cc(-c4cnc([C@@H]5CCCN5C(=O)[C@@H](NC(=O)OC)C(C)C)[nH]4)cc(F)c3-2)[nH]1)C1C[C@@H](C)O[C@@H](C)C1 (single isomer, unassigned) [Compound 649] |  |  |  |  |  | 1.2 | 2 | 0.41 | 240 | 253 | 
